Read-outs that look alike come from different tables or passages of the source.
Tests used:
Type in all cases: cell-based
HeLa cells [1] = assay: MTT assay; conditions: 48 h
Source text: The cytotoxic properties of I.1 were subsequently confirmed with another method, using the quantification of mitochondrial dehydrogenase activity of cells as determined by the level of 3-(4.5-dimethylthiazol-2-yl)-2.5-diphenyl tetrazolium bromide (MTT) reduction to its purple formazan, according to standard protocol^[30]. […] Cells were kept in the dark, or exposed to a pulsed toxic regime of 390 nm only, or exposed to a strong rescue protocol with pulses of 390 nm then 505 nm light. Pulses of light were applied every 30 s; 390 nm light pulses lasted 150 ms every 30 s, while the 505 nm light pulses were applied for 500 ms; in the strong rescue regime, the 505 nm pulse was synchronised so that it began immediately after the 390 nm pulse ended.
Cellular viability was measured 48 h later, namely, cells were incubated with MTT for three hours and after dissolution of the formazan crystals with DMSO, absorbance at 550 nm was measured using a FLUOstar Omega microplate reader. Results are shown in Table 5 below and are expressed as a fold growth relative to the control growth of the cells treated only with a co-solvent (0.5% MeCN) and represent mean and standard deviation of quadruplicates of the optical density values, which are proportional to the cell number.

MDA-MB-231 cells = assay: nuclear fragmentation (subG1, Nicoletti), induction of apoptosis; conditions: for EC50: Homo sapiens, MDA-MB-231, 48 h, read-out: EC50, 50% increase of the subG1 population percentage
Procedure: (§1) Different cell types, including MDA-MB-231, Jurkat, HeLa and HepG2 cells, were treated with indicated concentrations of compound I.1 and exposed to a 390 nm toxic regime, a rescue regime with both 390 nm and 515 nm light, or kept in the dark. Following the treatment, cells were stained with PI and the percentage of cells containing a hypodiploid amount of DNA (subG1 phase of cell cycle), was determined. Briefly, prior to analysis, cells were harvested on ice and incubated in a hypotonic buffer [0.1% sodium citrate, 0.1% Triton X-100 and 50 μg/mL propidium iodide (PI)] for 30 min at 4° C. Following the PI staining cells were analysed by flow cytometry using FACSCalibur flow cytometer (Becton Dickinson, Heidelberg, Germany) and Cell Quest Pro Software (Becton Dickinson).

HepG2 cells = assay: as above; conditions: 48 h
Procedure: as §1

Jurkat cells = assay: as above; conditions: 48 h
Procedure: as §1

HeLa cells [2] = assay: as above; conditions: 30 h
Procedure: as §1

COc1ccc(N=Nc2cc(OC)c(OC)c(OC)c2)cc1O [I.1, 2-methoxy-5-((3,4,5-trimethoxyphenyl)diazenyl)phenol]
mean fold growth (HeLa cells [1]; 10 nM, 390 nm (150 ms every 30 s)): 0.95 fold
mean fold growth (HeLa cells [1]; 10 nM, Dark): 0.93 fold
mean fold growth (HeLa cells [1]; 20 nM, 390 nm (150 ms every 30 s)): 0.96 fold
mean fold growth (HeLa cells [1]; 20 nM, Dark): 1.02 fold
mean fold growth (HeLa cells [1]; 50 nM, 390 nm (150 ms every 30 s)): 0.96 fold
mean fold growth (HeLa cells [1]; 50 nM, Dark): 1.01 fold
mean fold growth (HeLa cells [1]; 100 nM, 390 nm (150 ms every 30 s)): 0.93 fold
mean fold growth (HeLa cells [1]; 100 nM, dark): 1.01 fold
mean fold growth (HeLa cells [1]; 400 nM, 390 nm (150 ms every 30 s)): 0.28 fold
mean fold growth (HeLa cells [1]; 400 nM, dark): 1.00 fold
mean fold growth (HeLa cells [1]; 400 nM, rescue: 390 nm (150 ms) then 505 nm (500 ms) every 30 s): 0.46 fold
mean fold growth (HeLa cells [1]; 600 nM, 390 nm (150 ms every 30 s)): 0.21 fold
mean fold growth (HeLa cells [1]; 600 nM, dark): 1.05 fold
mean fold growth (HeLa cells [1]; 800 nM, 390 nm (150 ms every 30 s)): 0.17 fold
mean fold growth (HeLa cells [1]; 800 nM, Dark): 0.98 fold
mean fold growth (HeLa cells [1]; 1 μM, 390 nm (150 ms every 30 s)): 0.18 fold
mean fold growth (HeLa cells [1]; 1 μM, dark): 0.93 fold
mean fold growth (HeLa cells [1]; 2 μM, 390 nm (150 ms every 30 s)): 0.21 fold
mean fold growth (HeLa cells [1]; 2 μM, Dark): 0.98 fold
toxicity (HeLa cells [1]; in the dark, 10 nM-2 μM): no toxicity
concentration inducing severe cytotoxicity (HeLa cells [1]; upon exposure to the light (390 nm)): ≥ 400 nM
mean % subG1 phase (MDA-MB-231 cells; 10 nM, 390 nm (350 ms every 5 min), 48 h): 3.6%
mean % subG1 phase (MDA-MB-231 cells; 10 nM, Dark, 48 h): 6.7%
mean % subG1 phase (MDA-MB-231 cells; 10 nM, MDA-MB-231, 390 nm only (150 ms pulse every 30 s), 48 h): 0.3%
mean % subG1 phase (MDA-MB-231 cells; 10 nM, MDA-MB-231, rescue protocol 390 nm + 515 nm (500 ms), 48 h): 0.3%
mean % subG1 phase (MDA-MB-231 cells; 100 nM, 390 nm (350 ms every 5 min), 48 h): 3.9%
mean % subG1 phase (MDA-MB-231 cells; 100 nM, MDA-MB-231, 390 nm only (150 ms pulse every 30 s), 48 h): 0.3%
mean % subG1 phase (MDA-MB-231 cells; 100 nM, MDA-MB-231, dark, 48 hours): 2.1%
mean % subG1 phase (MDA-MB-231 cells; 100 nM, MDA-MB-231, rescue protocol 390 nm + 515 nm (500 ms), 48 h): 0.4%
mean % subG1 phase (MDA-MB-231 cells; 100 nM, dark, 48 h): 6.0%
mean % subG1 phase (MDA-MB-231 cells; 400 nM, 390 nm (350 ms every 5 min), 48 h): 4.2%
mean % subG1 phase (MDA-MB-231 cells; 400 nM, MDA-MB-231, 390 nm only (150 ms pulse every 30 s), 48 h): 14.0%
mean % subG1 phase (MDA-MB-231 cells; 400 nM, MDA-MB-231, rescue protocol 390 nm + 515 nm (500 ms), 48 h): 1.7%
mean % subG1 phase (MDA-MB-231 cells; 400 nM, dark, 48 h): 3.3%
mean % subG1 phase (MDA-MB-231 cells; 600 nM, 390 nm (350 ms every 5 min), 48 h): 16.8%
mean % subG1 phase (MDA-MB-231 cells; 600 nM, MDA-MB-231, 390 nm only (150 ms pulse every 30 s), 48 h): 22.9%
mean % subG1 phase (MDA-MB-231 cells; 600 nM, MDA-MB-231, rescue protocol 390 nm + 515 nm (500 ms), 48 h): 5.4%
mean % subG1 phase (MDA-MB-231 cells; 600 nM, dark, 48 h): 3.9%
mean % subG1 phase (MDA-MB-231 cells; 800 nM, 390 nm (350 ms every 5 min), 48 h): 32.1%
mean % subG1 phase (MDA-MB-231 cells; 800 nM, Dark, 48 h): 3.0%
mean % subG1 phase (MDA-MB-231 cells; 800 nM, MDA-MB-231, 390 nm only (150 ms pulse every 30 s), 48 h): 19.4%
mean % subG1 phase (MDA-MB-231 cells; 800 nM, MDA-MB-231, rescue protocol 390 nm + 515 nm (500 ms), 48 h): 11.7%
mean % subG1 phase (MDA-MB-231 cells; 1 μM, 390 nm (350 ms every 5 min), 48 h): 55.7%
mean % subG1 phase (MDA-MB-231 cells; 1 μM, MDA-MB-231, 390 nm only (150 ms pulse every 30 s), 48 h): 22.5%
mean % subG1 phase (MDA-MB-231 cells; 1 μM, MDA-MB-231, dark, 48 hours): 2.0%
mean % subG1 phase (MDA-MB-231 cells; 1 μM, MDA-MB-231, rescue protocol 390 nm + 515 nm (500 ms), 48 h): 15.3%
mean % subG1 phase (MDA-MB-231 cells; 1 μM, dark, 48 h): 3.1%
mean % subG1 phase (MDA-MB-231 cells; 1.2 μM, 390 nm (350 ms every 5 min), 48 h): 56.6%
mean % subG1 phase (MDA-MB-231 cells; 1.2 μM, DARK, 48 h): 3.6%
mean % subG1 phase (MDA-MB-231 cells; 1.5 μM, 390 nm (350 ms every 5 min), 48 h): 76.1%
mean % subG1 phase (MDA-MB-231 cells; 1.5 μM, DARK, 48 h): 3.3%
mean % subG1 phase (MDA-MB-231 cells; 2 μM, MDA-MB-231, 390 nm only (150 ms pulse every 30 s), 48 h): 35.4%
mean % subG1 phase (MDA-MB-231 cells; 2 μM, MDA-MB-231, rescue protocol 390 nm + 515 nm (500 ms), 48 h): 25.0%
mean % subG1 phase (MDA-MB-231 cells; 3 μM, 390 nm (350 ms every 5 min), 48 h): 79.0%
mean % subG1 phase (MDA-MB-231 cells; 3 μM, dark, 48 h): 6.0%
mean % subG1 phase (MDA-MB-231 cells; 6 μM, 390 nm (350 ms every 5 min), 48 h): 83.5%
mean % subG1 phase (MDA-MB-231 cells; 6 μM, DARK, 48 h): 3.9%
mean % subG1 phase (MDA-MB-231 cells; 10 μM, MDA-MB-231, dark, 48 hours): 2.0%
mean % subG1 phase (MDA-MB-231 cells; 15 μM, 390 nm (350 ms every 5 min), 48 h): 83.7%
mean % subG1 phase (MDA-MB-231 cells; 15 μM, DARK, 48 h): 5.4%
mean % subG1 phase (MDA-MB-231 cells; 50 μM, MDA-MB-231, dark, 48 hours): 4.5%
mean % subG1 phase (MDA-MB-231 cells; 75 μM, MDA-MB-231, dark, 48 hours): 7.9%
mean % subG1 phase (MDA-MB-231 cells; 85 μM, MDA-MB-231, dark, 48 hours): 12.7%
mean % subG1 phase (MDA-MB-231 cells; 100 μM, MDA-MB-231, dark, 48 hours): 26.8%
mean % subG1 phase (MDA-MB-231 cells; 125 μM, MDA-MB-231, dark, 48 hours): 51.1%
mean % subG1 phase (MDA-MB-231 cells; 150 μM, MDA-MB-231, dark, 48 hours): 92.2%
mean % subG1 phase (MDA-MB-231 cells; 175 μM, MDA-MB-231, dark, 48 hours): 95.7%
mean % subG1 phase (MDA-MB-231 cells; 200 μM, MDA-MB-231, dark, 48 hours): 95.5%
EC50 (MDA-MB-231 cells; 390 nm regimen, 48 h): ~1 µM
EC50 (MDA-MB-231 cells; in the dark, 48 h): ~120 µM
mean % subG1 phase (HepG2 cells; 100 nM, HepG2, 390 nm light (250 ms pulses every 15 s)): 5.4%
mean % subG1 phase (HepG2 cells; 100 nM, HepG2, dark): 2.5%
mean % subG1 phase (HepG2 cells; 600 nM, HepG2, 390 nm light (250 ms pulses every 15 s)): 5.2%
mean % subG1 phase (HepG2 cells; 600 nM, HepG2, dark): 3.1%
mean % subG1 phase (HepG2 cells; 1 μM, HepG2, 390 nm light (250 ms pulses every 15 s)): 4.6%
mean % subG1 phase (HepG2 cells; 1 μM, HepG2, dark): 2.3%
mean % subG1 phase (HepG2 cells; 3 μM, HepG2, 390 nm light (250 ms pulses every 15 s)): 6.5%
mean % subG1 phase (HepG2 cells; 3 μM, HepG2, dark): 1.9%
mean % subG1 phase (HepG2 cells; 10 μM, HepG2, 390 nm light (250 ms pulses every 15 s)): 14%
mean % subG1 phase (HepG2 cells; 10 μM, HepG2, dark): 2.8%
mean % subG1 phase (Jurkat cells; 5 nM, 390 nm (350 ms pulses every 5 min)): 2.7%
mean % subG1 phase (Jurkat cells; 5 nM, dark): 3.0%
mean % subG1 phase (Jurkat cells; 50 nM, 390 nm (350 ms pulses every 5 min)): 4.9%
mean % subG1 phase (Jurkat cells; 50 nM, dark): 3.4%
mean % subG1 phase (Jurkat cells; 100 nM, 390 nm (350 ms pulses every 5 min)): 9.1%
mean % subG1 phase (Jurkat cells; 100 nM, dark): 3.5%
mean % subG1 phase (Jurkat cells; 150 nM, 390 nm (350 ms pulses every 5 min)): 18.5%
mean % subG1 phase (Jurkat cells; 150 nM, dark): 3.3%
mean % subG1 phase (Jurkat cells; 200 nM, 390 nm (350 ms pulses every 5 min)): 49.7%
mean % subG1 phase (Jurkat cells; 200 nM, dark): 3.0%
mean % subG1 phase (Jurkat cells; 400 nM, 390 nm (350 ms pulses every 5 min)): 88.5%
mean % subG1 phase (Jurkat cells; 400 nM, dark): 4.4%
mean % subG1 phase (Jurkat cells; 800 nM, 390 nm (350 ms pulses every 5 min)): 89.5%
mean % subG1 phase (Jurkat cells; 800 nM, dark): 5.5%
mean % subG1 phase (Jurkat cells; 1.5 μM, 390 nm (350 ms pulses every 5 min)): 89.6%
mean % subG1 phase (Jurkat cells; 1.5 μM, dark): 7.9%
mean % subG1 phase (Jurkat cells; 5 μM, 390 nm (350 ms pulses every 5 min)): 91.0%
mean % subG1 phase (Jurkat cells; 5 μM, dark): 12.0%
mean % subG1 phase (HeLa cells [2]; 200 nM, 390 nm light (1 s pulses every 15 min)): 2.4%
mean % subG1 phase (HeLa cells [2]; 200 nM, dark): 1.8%
mean % subG1 phase (HeLa cells [2]; 600 nM, 390 nm light (1 s pulses every 15 min)): 6.2%
mean % subG1 phase (HeLa cells [2]; 600 nM, dark): 2.3%
mean % subG1 phase (HeLa cells [2]; 1.5 μM, 390 nm light (1 s pulses every 15 min)): 16.1%
mean % subG1 phase (HeLa cells [2]; 1.5 μM, dark): 2.9%
mean % subG1 phase (HeLa cells [2]; 5 μM, 390 nm light (1 s pulses every 15 min)): 12.8%
mean % subG1 phase (HeLa cells [2]; 5 μM, dark): 3.2%
